{"source": "patent US10918599B2", "about": "“Serum-stable compositions and methods for light-triggered release of materials” (priority 2015, dated 2021)", "key": {"MIA Paca-2 tumors [1]": {"test_system": "MIA Paca-2 tumors", "conditions": "mice, single dose; cited from earlier work"}, "MIA Paca-2 tumors [2]": {"test_system": "MIA Paca-2 tumors", "assay": "Survival study, phototreatment efficacy (Example 1)", "assay_type": "in vivo", "experimental": "Survival study. 5×10^6 MIA Paca-2 cells (obtained from ATTC) were injected in the right flank female nude mice mice (5 weeks, Jackson Labs, #007850). […] N=5-6. Dose for Dox-PoP is 7 mg/kg for Dox and the dose of PoP was adjusted to be equivalent to that of Dox-PoP 7 mg/kg (Dox to lipid loading ratio 1:5), which is 1.225 mg/kg (1.21 μmol/kg Pyro-phospholipid). […] 21 mg/kg of sterically stabilized liposomal Dox (HSPC:CHOL:DSPE-PEG-2K=56.3:38.4:5.3% mole) was used for standard treatment of Doxil®. Free Dox 7 mg/kg was used as a free drug control. 1 h after intravenous injection, tumors that need laser treatment were all irradiated at a fluence rate of 300 W/cm^2 for 16 min 40 s (total fluence 300 J/cm^2). HPPH was diluted in PBS containing 2% ethanol and 0.2% Tween 80 and injected at a dose of 1.21 μmol/kg. Light treatment was performed 24 h post injection. Tumor size was monitored 2-3 times per week and tumor volumes were estimated by measuring three tumor dimensions using a caliper and the ellipsoid formula: Volume=π·L·W·H/6, where L, W and H are the length, width and height of the tumor, respectively. The weights of the mice were monitored every week. MIA PaCa-2 mice were sacrificed when the volume exceeded 10 times of its initial volume.\nFor Kaplan-Meier survival curve, each pair of group were compared by Log-rank (Mantel-Cox) test. […]"}, "[3]": {"conditions": "mice; cited from earlier work"}}, "data": [{"compound": "COc1cccc2c1C(=O)c1c(O)c3c(c(O)c1C2=O)C[C@@](O)(C(=O)CO)C[C@@H]3O[C@H]1C[C@H](N)[C@H](O)[C@H](C)O1", "note": "[Free Dox, Doxorubicin]", "values": [{"measurement": "maximum tolerated dose", "setting": "MIA Paca-2 tumors [1]", "value": 7, "unit": "mg/kg"}, {"measurement": "median survival", "setting": "MIA Paca-2 tumors [2]; 7 mg/kg, single dose, no laser", "value": 19, "unit": "days"}]}, {"compound": "C=CC1=C(C)c2cc3[nH]c(c4c5nc(cc6[nH]c(cc1n2)c(C)c6CC)C(C)=C5C(=O)C4)C(CCC(=O)OC(COC(=O)CCCCCCCCCCCCCCC)COP(=O)([O-])OCC[N+](C)(C)C)C3C", "note": "(stereo not shown) [Pyro-phospholipid]", "values": [{"measurement": "well-tolerated intravenous dose", "setting": "[3]", "value": "≤ 1000", "unit": "mg/kg"}]}, {"compound": "HPPH", "values": [{"measurement": "median survival", "setting": "MIA Paca-2 tumors [2]; conventional PDT, 1.21 μmol/kg, light 24 h post injection, 300 J/cm^2", "value": 38, "unit": "days"}]}]}
